# In patent US8426392B2, “Method for providing emergency contraception” (Laboratoire HRA-Pharma, priority 2009, dated 2013):
# “Also recorded” adds a separate entry of the source. Where two headings read alike, the source gives them in different places. Marks after values point to notes of the source that are not given here.
# What was measured:
# [1] = Food interaction study: bioavailability of a single 30 mg oral dose of ulipristal acetate in fed and fasting states; details: for AUC(0-t) / AUC(0-inf) / Cmax / Tmax / half-life: female, human, plasma, oral, 30 mg; for AUC(0-t): AUC0-t; for AUC(0-inf): AUC0-∞
# Method: (§1) A specific food interaction study was conducted, in which the pharmacokinetic profile of ulipristal acetate and its main metabolite 3877A was evaluated after single administration of a 30-mg ulipristal acetate micronized tablet either under fasted conditions or after a high-fat breakfast. The main pharmacokinetic parameters were evaluated, including maximum plasma concentration (Cmax), area under the drug concentration curve (AUC) from time 0 to time of last determinable concentration or to infinity, and the time to maximum plasma concentration (tmax).
# (§2) A second oral administration followed, after at least a 21-day wash-out period.
# (§3) Analysis of Cmax and AUC was carried out by analysis of variance using PROC MIXED® program on the logarithmically transformed data. The 90% standard confidence interval limits for relative treatment differences was calculated by geometric means based on logarithmic transformation of the intra-individual ratios of Cmax and AUC.
# (§4) The analysis of tmax was based on Wilocoxon-Mann-Whitney test adapted according to the methodology of Koch. Estimate for treatment difference and 90% confidence interval was estimated according to the method of Moses.
# [2] = used within 72 hours of unprotected intercourse; cited from earlier work
# [3] = Phase III pregnancy rates after 30 mg ulipristal acetate tablet by food intake prior to treatment; assay type: in vivo, human; details: for Observed PR (pregnancy rate): 30 mg tablet
# Method: With respect to clinical efficacy, data on last food intake prior to study drug was collected in a subset of subjects (n=1185) included in the phase III program of development of the 30 mg ulipristal acetate tablet for emergency contraception. Pregnancy rates (PR) were compared between women who reported having eaten within two hours prior to treatment intake versus those who reported having eaten only earlier.
# [4] = in vivo
# Method: as §1, §2, §3, §4
# [5] = Fed vs. Fasted condition, ANOVA
# [6] = fasted, single 30 mg tablet, mean ± SD
# [7] = fed (high-fat breakfast), single 30 mg tablet, mean ± SD
structure (smiles),measurement,setting,value
"CC(=O)O[C@]1(C(C)=O)CC[C@H]2[C@@H]3CCC4=CC(=O)CCC4=C3[C@@H](c3ccc(N(C)C)cc3)C[C@@]21C [ulipristal acetate, 17α-acetoxy-11β-[4-N,N-dimethylamino-phenyl)-19-norpregna-4,9-diene-3,20-dione]","AUC0-t, point estimate of the fed/fasted ratio of least squares geometric means",[1]; [5],123.30^a %
same,"AUC0-∞, point estimate of the fed/fasted ratio of least squares geometric means",[1]; [5],126.20^b %
same,"Cmax, point estimate of the fed/fasted ratio of least squares geometric means",[1]; [5],56.25%
same,higher mean AUC0-∞ with a high-fat breakfast,[1]; compared with administration in a fasted state,25%
same,tlag,"[1]; fasted, single 30 mg tablet, median (range)",0.00 (0.00-0.00) h
same,tlag,"[1]; fed (high-fat breakfast), single 30 mg tablet, median (range)",0.00 (0.00-0.50) h
same,AUC(0-t),[1]; [6],467 ng·h/mL
same,AUC(0-t),[1]; [7],566 ng·h/mL
same,AUC(0-inf),[1]; [6],474 ng·h/mL
same,AUC(0-inf),[1]; [7],608 ng·h/mL
same,Cmax,"[1]; fasted, single 30 mg ulipristal acetate micronized tablet, healthy women, mean ± SD",173 ng/mL
same,Cmax,"[1]; fed (high-fat breakfast), single 30 mg ulipristal acetate tablet, mean ± SD",99.2 ng/mL
same,Tmax,"[1]; Tmax (median), fasted state, as stated for the printed matter",0.75 h
same,Tmax,"[1]; Tmax (median), with a high-fat breakfast, as stated for the printed matter",3 h
same,half-life,"[1]; t1/2, fasted, single 30 mg tablet, mean ± SD",37.2 ± 7.19 h
same,half-life,"[1]; t1/2, fed (high-fat breakfast), single 30 mg tablet, mean ± SD",36 ± 7.78 h
same,half-life,"[1]; terminal elimination half-life, average, independently of the food condition",~36 h
same,Tmax,"[1]; tmax, fasted, single 30 mg tablet, median (range)",0.75 h
same,Tmax,"[1]; tmax, fed (high-fat breakfast), single 30 mg tablet, median (range)",3 h
same,efficacy for preventing pregnancy compared with levonorgestrel,[2],as efficacious as levonorgestrel
same,Expected PR (pregnancy rate),[3]; food intake 2 h or more before ulipristal acetate intake,5.56%
same,Observed PR (pregnancy rate),"[3]; food intake 2 h or more before ulipristal acetate intake, n=905",1.44%
same,Expected PR (pregnancy rate),[3]; food intake less than 2 h before ulipristal acetate intake,5.27%
same,Observed PR (pregnancy rate),"[3]; food intake less than 2 h before ulipristal acetate intake, n=279",1.79%
same,effect of food on efficacy in emergency contraception (pregnancy rate),"[3]; phase III trials, eaten within two hours prior to intake versus earlier",the same therapeutic efficacy; also recorded: no significant effect
"CNc1ccc([C@H]2C[C@@]3(C)[C@@H](CC[C@]3(OC(C)=O)C(C)=O)[C@@H]3CCC4=CC(=O)CCC4=C32)cc1 [3877A, 17α-acetoxy-11β-[4-N-methylamino-phenyl)-19-norpregna-4,9-diene-3,20-dione]",terminal elimination half-life,[4]; human,around 30 h
same,AUC0-∞,"[4]; human, 30 mg",265 ng·h/mL
same,AUC(0-t),"[4]; human, 30 mg",244 ng·h/mL
same,Cmax,"[4]; human, 30 mg",86.5 ng/mL
same,Tmax,"[4]; human, 30 mg",0.75 h
same,t1/2,"[4]; human, 30 mg",30.0 ± 7.56^c h
same,"AUC0-t, point estimate of the fed/fasted ratio of least squares geometric means",[4],121.72^a %
same,"AUC0-∞, point estimate of the fed/fasted ratio of least squares geometric means",[4],118.73^c %
same,"Cmax, point estimate of the fed/fasted ratio of least squares geometric means",[4],62.45%
